Measurements: patent US20240199557A1, “METHODS OF MAKING 1-BENZYL-4-PHENYL-1H-1,2,3-TRIAZOLE (BPT) AND BPT COATED STRUCTURES” (BOARD OF REGENTS, THE UNIVERSITY OF TEXAS SYSTEM, priority 2022, published 2024)

Assays:
[1] = Linear polarization resistance (LPR): corrosion rate and inhibitor efficiency of steel rebar in synthetic pore solution
From the text: (§1) The steel cylinder working electrode (WE) were cross-sectioned and encased in epoxy. The surface was polished using 120 grit to 600 grit SiC paper, resulting in an exposed area of 0.499±0.01 cm^2. A Pt mesh was used as the counter electrode (CE). In terms of the reference electrodes (RE), a Saturated Calomel Electrode (SCE) was used for solutions with chloride and a Mercury Mercurous Sulfate Electrode (MSE) for solutions without chloride, satisfying the electrochemical cell requirements of ASTM standard G5 [38]. Though the experiments without chlorides were measured with MSE, the results were converted to SCE.
(§2) The WE, RE, and CE were placed in a test cell containing a synthetic pore solution (SPS). This SPS mimics the concrete pore environment and followed a formula consisting of 8.33 g/L NaOH+23.3 g/L KOH+2.0 g/L Ca(OH)2 (pH:13.6). These solutions were prepared using deionized water from a Milli-Q Water Purification System (resistivity: 18.2-18.7 MΩ·cm) and analytically pure grade reagents.
The testing procedure involved an initial pH measurement of the solution followed by purging the cell with CO2-free air (300 cc/min or more) for 5 minutes, prior to introducing the WE and throughout the experiment to reduce the effects of carbonation. More details can be found elsewhere. 2 M NaCl was chosen for the experiments since previously tested concentrations were not able to break the passive film generated in this highly alkaline environment. After chloride addition, the electrolyte was stirred for 4 h, while continuing to purge with CO2-free air. Then stirring stopped and purging was continued for 20 h to allow for passivation of the substrate. […]
The results of the LPR measurements for the different conditions tested are presented in FIG. 3 as CR, which was determined using an estimated Stem-Geary coefficient (B) of 26 mV (corroding bars) and Rp values calculated, all following ASTM G59 [72, 73]. […]
The efficiency (IE, %) of the BPT was calculated using the CR results when Cl^− was added to the control solution (CRSPS) and solutions containing BPT (CRBPT), using Equation (1). […]

[2] = Anodic cyclic polarization (CYP): pitting potential
From the text: as §1, §2
The testing procedure involved an initial pH measurement of the solution followed by purging the cell with CO2-free air (300 cc/min or more) for 5 minutes, prior to introducing the WE and throughout the experiment to reduce the effects of carbonation. More details can be found elsewhere. 2 M NaCl was chosen for the experiments since previously tested concentrations were not able to break the passive film generated in this highly alkaline environment. After chloride addition, the electrolyte was stirred for 4 h, while continuing to purge with CO2-free air. Then stirring stopped and purging was continued for 20 h to allow for passivation of the substrate. […] This procedure is similar to ASTM G180 [41]. The difference is related to the use of SPS instead of a cement slurry. Using a Gamry Reference 600+Potentiostat, different electrochemical tests were performed including open circuit potential (OCP), linear polarization resistance (LPR) and Anodic Cyclic Polarization (CYP).
LPR tests were performed from −0.030 V to +0.030 V from OCP, with a scan rate of 0.167 mV/s, in accordance with ASTM G59. CYP ran at a scan rate of 0.167 mV/s, beginning at 0.030 V more negative than the OCP with a maximum i of 1 mA/cm^2. Tests were performed to verify that pitting was occurring and not crevice corrosion occurred during CYP. After each experiment, the specimen was rinsed with D.I. water, degreased with ethanol, and dried. Surface images were taken using BX53 Olympus microscope to evaluate the corrosion morphology. […]
It is observed that for all conditions evaluated the passive film on the steel was formed, but the pitting potential (Ep) changed, being higher with the increase in BPT concentration (Table 3).

[3] = Stability/solubility of BPT in SPS and co-dissolvers; assay type: physicochemical
Procedure: Initial tests were run to find the stability/solubility of BPT in SPS. […] Several co-dissolvers were tested (ethyl alcohol 95%, isopropyl alcohol, acetone, dimethylsulfoxide, dimethylformamide, ethylenglycol, diethylenglycol, and 1-Methyl-2-pyrrolidinone), to aid in the solubility of the BPT in SPS. From these co-dissolvers, the organic compound N-methyl-2-pyrrolidone (NMP) performed the best and was selected at a concentration of 2.35 mg of BPT/mL of NMP (BPT saturated NMP solution).

[4] = XRD quantitative phase analysis of carbon steel discs after immersion
Procedure: Four 3 mm height discs were cut from […] diameter steel rebar and one of their flat faces was polished using silicon carbide sandpaper with 250, 400 and, 600 grit. Subsequently each disc was immersed for 90 seconds in 10 mL of a freshly prepared Clarke solution [42], rinsed thoroughly with water, acetone and dried under a soft stream of dry N2. The crystalline structure of the samples was analyzed on their sheeny face employing X-Ray powder diffraction (XRD) using a Bruker D8 Advance Eco diffractometer applying Cu-Kα1,2 radiation. All samples were scanned at 40 kV and 25 mA in the […] of 31-66° and 2.0 s of step time per 2θ=0.019°. The crystalline planes used to perform the quantitative phase analysis (QPA) are for iron at 2θ=44.6°; [2,0,0] for lepidocrocite at 2θ=47.4° and, [2,2,0] for goethite at 2θ=33.6°.
Subsequently, each one of the discs was immersed in a solution with the composition as described on Table 5 and their surfaces were analyzed using XRD four weeks later. The diffraction patterns are shown in FIG. 9 and the quantitative phase analysis (QPA) data is given on Table 6.

[5] = A36 mild steel, 1M HCl, 298 K; 2.311 mm/year without inhibitor; cited from earlier work

c1ccc(Cn2cc(-c3ccccc3)nn2)cc1 [BPT, 1-Benzyl-4-Phenyl-1H-1,2,3-triazole]
efficiency (IE, %) ([1]; 3 mM BPT in SPS with 2 M NaCl, calculated from CR by Equation (1)): 85.2% | concentrations at which BPT can inhibit the corrosion of carbon steel rebar ([1]; SPS with 2 M NaCl): higher than 2 mM | optimal concentration of BPT to inhibit corrosion on carbon steel rebar ([1]; SPS with 2 M NaCl): 3 mM | Ep (pitting potential) ([2]; 1 mM BPT in SPS, 2M NaCl): 149.25 mV vs. SCE | Ep (pitting potential) ([2]; 2 mM BPT in SPS, 2M NaCl): 404.04 mV vs. SCE | Ep (pitting potential) ([2]; 3 mM BPT in SPS, 2M NaCl): 302.06 mV vs. SCE | Ep (pitting potential) ([2]; Adj. 3 mM BPT+NMP (hydroxide concentration adjusted to SPS), 2 M NaCl): 429.53±1.29 mV vs. SCE | stability in SPS ([3]; alkaline solution (SPS, pH 13.6)): stable in the alkaline solution | concentration of BPT saturated NMP solution ([3]; in N-methyl-2-pyrrolidone (NMP)): 2.35 mg of BPT/mL of NMP | solubility in water ([3]; water): unable to dissolve in water | AFe/AGoe ([4]; SPS with NaCl in presence of BPT): 0 | AFe/ALep ([4]; disc 4: SPS + 2M NaCl + NMP + 3 mM BPT, four-week immersion): 26,908 | corrosion kinetics (corrosion rate) with BPT [5]: 0.429 mm/year
